The values that follow come from US6521620B1, “Bicyclic compounds capable of inhibiting tyrosine kinases of the epidermal growth factor receptor family” (Warner-Lambert Company, priority 1994, dated 2003).

Where a name gives a salt, the structure may show the parent alone. Read-outs that look alike come from different tables or passages of the source.

This test concerns the target T1, Human EGF receptor tyrosine kinase (Homo sapiens, UniProt P00533).
T1 construct: isolated from A431 human epidermoid carcinoma cells which overexpress EGF receptor; endogenous in cells; host or cells: A431 human epidermoid carcinoma cells; purified from the lysate on wheat germ agglutinin sepharose
Nature of the test: EGF receptor tyrosine kinase inhibition (phosphorylation of PLC-gamma 1 derived peptide). It counts as biochemical. As for the experimental part:
Purification of Epidermal Growth Factor Receptor Tyrosine Kinase—Human EGF receptor tyrosine kinase was isolated from A431 human epidermoid carcinoma cells which overexpress EGF receptor by the following methods. Cells were grown in roller bottles in 50% Delbuco's Modified Eagle and 50% HAM F-12 nutrient media (Gibco) containing 10% fetal calf serum. Approximately 10^9 cells were lysed in two volumes of buffer containing 20 mM 2-(4N-[2-hydroxyethyl]piperazin-1-yl)ethanesulfonic acid (hepes), pH 7.4, 5 mM ethylene glycol bis(2-aminoethyl ether) N,N,N′,N′-tetraacetic acid, 1% Triton X-100, 10% glycerol, 0.1 mM sodium orthovanadate, 5 mM sodium fluoride, 4 mM pyrophosphate, 4 mM benzamide, 1 mM dithiothreitol, 80 μg/mL aprotinin, 40 μg/mL leupeptin and 1 mM phenylmethylsulfonyl fluoride. After centrifugation at 25,000×g for 10 minutes, the supernatant was equilibrated for 2 h at 4° C. with 10 mL of wheat germ agglutinin sepharose that was previously equilibrated with 50 mM Hepes, […], 0.1% Triton X-100 and 150 mM NaCl, pH 7.5, (equilibration buffer). Contaminating proteins were washed from the resin with 1 M NaCl in equilibration buffer, and the enzyme was eluted with 0.5 M N-acetyl-1-D-glucosamine in equilibration buffer, followed by 1 mM urea. The enzyme was eluted with 0.1 mg/ml EGF.
The reaction was terminated by the addition of 2 mL of […] phosphoric acid and passed through a 2.5 cm phosphocellulose filter disc to bind the peptide. The filter was washed five times with 75 mM phosphoric acid and placed in a vial along with 5 mL of scintillation fluid (Ready gel Beckman).

[1] abbreviates: Table 1, values printed in μM, read-out: EGF Receptor Tyrosine Kinase Inhibition IC50.
Where [2] appears, read: Table 1, values in nM, read-out: EGF Receptor Tyrosine Kinase Inhibition IC50.
Setting [3] is: Table 1, values in pM, read-out: EGF Receptor Tyrosine Kinase Inhibition IC50.

T1 sequence (P00533 25-1210): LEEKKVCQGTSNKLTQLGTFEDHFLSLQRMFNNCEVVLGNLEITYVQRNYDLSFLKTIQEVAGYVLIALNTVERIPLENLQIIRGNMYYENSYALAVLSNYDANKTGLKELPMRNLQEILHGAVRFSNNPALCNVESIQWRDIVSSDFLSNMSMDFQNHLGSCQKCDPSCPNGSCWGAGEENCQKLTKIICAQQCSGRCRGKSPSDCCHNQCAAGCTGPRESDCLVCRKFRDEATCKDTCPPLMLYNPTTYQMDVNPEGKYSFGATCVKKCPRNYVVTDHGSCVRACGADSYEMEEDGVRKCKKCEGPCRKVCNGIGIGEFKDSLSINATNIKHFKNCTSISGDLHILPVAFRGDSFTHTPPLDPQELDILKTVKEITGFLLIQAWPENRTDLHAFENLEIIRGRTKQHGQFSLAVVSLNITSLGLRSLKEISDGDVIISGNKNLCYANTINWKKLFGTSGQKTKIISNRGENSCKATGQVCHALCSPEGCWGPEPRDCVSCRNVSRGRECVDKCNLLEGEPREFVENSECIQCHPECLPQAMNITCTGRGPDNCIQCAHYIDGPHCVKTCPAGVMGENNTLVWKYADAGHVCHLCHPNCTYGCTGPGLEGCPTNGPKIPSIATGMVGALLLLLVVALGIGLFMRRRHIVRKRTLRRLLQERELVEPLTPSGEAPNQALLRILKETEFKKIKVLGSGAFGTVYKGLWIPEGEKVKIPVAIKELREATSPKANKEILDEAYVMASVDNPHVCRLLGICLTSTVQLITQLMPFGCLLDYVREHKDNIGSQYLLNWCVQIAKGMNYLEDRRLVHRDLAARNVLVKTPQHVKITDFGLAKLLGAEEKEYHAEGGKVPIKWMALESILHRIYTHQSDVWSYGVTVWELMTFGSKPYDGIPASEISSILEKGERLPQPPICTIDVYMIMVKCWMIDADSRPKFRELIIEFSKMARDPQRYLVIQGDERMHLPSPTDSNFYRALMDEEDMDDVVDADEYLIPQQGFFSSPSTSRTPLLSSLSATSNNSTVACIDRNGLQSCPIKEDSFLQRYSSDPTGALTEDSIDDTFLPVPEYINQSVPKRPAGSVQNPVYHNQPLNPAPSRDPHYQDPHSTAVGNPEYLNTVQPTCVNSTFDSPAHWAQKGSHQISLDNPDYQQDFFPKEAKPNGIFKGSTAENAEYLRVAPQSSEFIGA

As a reminder, the IC50 is the concentration at which inhibition is half-maximal. With `c1ccc(Nc2ncnc3cccnc23)cc1` [Example 1, 4-Anilinopyrido[3,2-d]pyrimidine Mesylate], the IC50 under setting [1] stood at 8000 nM. The compound `c1ccc(CNc2ncnc3cccnc23)cc1` [Example 2, 4-Benzylaminopyrido[3,2-d]pyrimidine] showed an IC50 of 3600 nM.

In the case of `Brc1cccc(Nc2ncnc3cccnc23)c1` [Example 3, 4-(3-Bromoanilino)pyrido[3,2-d]pyrimidine], under setting [1], the IC50 is 1100 nM. `Clc1ccc2ncnc(Nc3cccc(Br)c3)c2n1` [Example 5, 4-(3-Bromoanilino)-6-chloropyrido[3,2-d]pyrimidine]: under setting [1], the IC50 was 1900 nM. Regarding `COc1ccc2ncnc(Nc3cccc(Br)c3)c2n1` [Example 9, 4-(3-Bromoanilino)-6-methoxypyrido[3,2-d]pyrimidine], the IC50 under setting [2] amounted to 405 nM. `c1ccc(Nc2ncnc3ccncc23)cc1` [Example 10, 4-Anilinopyrido[4,3-d]pyrimidine]: the IC50 under setting [1] worked out at 6100 nM. For `Brc1cccc(Nc2ncnc3ccncc23)c1` [Example 11, 4-(3-Bromoanilino)pyrido[4,3-d]pyrimidine], under setting [2], the 50% inhibitory concentration (IC50) was found to be 194 nM.

With `Fc1cc2ncnc(Nc3cccc(Br)c3)c2cn1` [Example 12, 4-(3-Bromoanilino)-7-fluoropyrido[4,3-d]pyrimidine], the 50% inhibitory concentration (IC50) under setting [2] stood at 13 nM. Consider `Nc1cc2ncnc(Nc3ccccc3)c2cn1` [Example 13, 7-Amino-4-anilinopyrido[4,3-d]pyrimidine], for which the 50% inhibitory concentration (IC50) under setting [2] worked out at 250 nM. With `Nc1cc2ncnc(Nc3cccc(O)c3)c2cn1` [Example 14, 7-Amino-4-(3-hydroxyanilino)pyrido[4,3-d]pyrimidine], the IC50 under setting [2] came out at 70 nM. As for `COc1cccc(Nc2ncnc3cc(N)ncc23)c1` [Example 15, 7-Amino-4-(3-methoxyanilino)pyrido[4,3-d]pyrimidine], the IC50 under setting [2] was 134 nM. `COc1ccccc1Nc1ncnc2cc(N)ncc12` [Example 16, 7-Amino-4-(2-methoxyanilino)pyrido[4,3-d]pyrimidine]: under setting [1], the IC50 is 3700 nM. Consider `Nc1cccc(Nc2ncnc3cc(N)ncc23)c1` [Example 17, 7-Amino-4-(3-aminoanilino)pyrido[4 3-d]pyrimidine], for which the IC50 under setting [1] was determined as 1550 nM. For `Nc1ccc(Nc2ncnc3cc(N)ncc23)cc1` [Example 18, 7-Amino-4-(4-aminoanilino)pyrido[4,3-d]pyrimidine], the IC50 under setting [2] worked out at 173 nM. `CN(C)c1cccc(Nc2ncnc3cc(N)ncc23)c1` [Example 19, 7-Amino-4-(3-dimethylaminoanilino)pyrido [4,3-d]pyrimidine]: under setting [1], the IC50 amounted to 1800 nM. The same measure, in the same setting: as for `CN(C)c1ccc(Nc2ncnc3cc(N)ncc23)cc1` [Example 20, 7-Amino-4-(4-dimethylaminoanilino)pyrido[4,3-d]pyrimidine], the figure is 4900 nM; as for `Nc1cc2ncnc(Nc3ccccc3[N+](=O)[O-])c2cn1` [Example 21, 7-Amino-4-(2-nitroanilino)pyrido[4,3-d]pyrimidine], 1250 nM. As to `Nc1cc2ncnc(Nc3cccc(F)c3)c2cn1` [Example 23, 7-Amino-4-(3-fluoroanilino)pyrido[4,3-d]pyrimidine], the IC50 under setting [2] was 840 nM. Same read-out and setting: as for `Nc1cc2ncnc(Nc3cccc(Cl)c3)c2cn1` [Example 24, 7-Amino-4-(3-chloroanilino)pyrido[4,3-d]pyrimidine], the figure is 123 nM; as for `Nc1cc2ncnc(Nc3ccc(Cl)c(Cl)c3)c2cn1` [Example 25, 7-Amino-4-(3,4-dichloroanilino)pyrido[4,3-d]pyrimidine], 377 nM; as for `Nc1cc2ncnc(Nc3ccccc3Br)c2cn1` [Example 26, 7-Amino-4-(2-bromoanilino)pyrido[4,3-d]pyrimidine], 241 nM. As for `Nc1cc2ncnc(Nc3ccc(Br)cc3)c2cn1` [Example 28, 7-Amino-4-(4-bromoanilino)pyrido[4,3-d]pyrimidine], under setting [2], the IC50 worked out at 94 nM. As for `Nc1cc2ncnc(Nc3cccc(I)c3)c2cn1` [Example 29, 7-Amino-4-(3-iodoanilino)pyrido[4,3-d]pyrimidine], the IC50 under setting [2] is 262 nM. Regarding `Nc1cc2ncnc(Nc3cccc(C(F)(F)F)c3)c2cn1` [Example 31, 7-Amino-4-(3-trifluoromnethylanilino)pyrido[4,3-d]pyrimidine], the IC50 under setting [2] was 15 nM. As to `Nc1cc2ncnc(Nc3ccc(C(F)(F)F)cc3)c2cn1` [Example 32, 7-Amino-4-(4-trifluoromethylanilino)3pyrido[4,3-d]pyrimidine], the IC50 under setting [1] amounted to 4700 nM.

With `CNc1cc2ncnc(Nc3cccc(Br)c3)c2cn1` [Example 33, 4-(3-Bromoanilino)-7-methylaminopyrido[4 3-d]pyrimidine], the IC50 under setting [3] is 0.13 nM. Still for that read-out and setting: in the case of `CN(C)c1cc2ncnc(Nc3cccc(Br)c3)c2cn1` [Example 34, 4-(3-Bromoanilino)-7-dimethylaminpyrido[4,3-d]pyrimidine] it was 0.091 nM. On to `CNc1cc2ncnc(N(C)c3cccc(Br)c3)c2cn1` [Example 35, 4-[N-(3-Bromophenyl)-N-methylaminol-7-methylaminopyrido 4,3-d]pyrimidine], for which, under setting [2], the IC50 is 3.1 nM. Consider `CC(=O)Nc1cc2ncnc(Nc3cccc(Br)c3)c2cn1` [Example 36, 7-Acetylamino-4-(3-bromoanilino)pyrido[4 3-d]pyrimidine], for which, under setting [2], the IC50 is 29 nM. Consider `COc1cc2ncnc(Nc3cccc(Br)c3)c2cn1` [Example 37, 4-(3-Bromoanilino)-7-methoxypyrido[4,3-d]pyrimidine], for which the IC50 under setting [2] is 39 nM. In the case of `c1ccc(CNc2ncnc3ccncc23)cc1` [Example 38, 4-Benzylaminopyrido[4,3-d]pyrimidine], the IC50 under setting [2] amounted to 71 nM. Turning to `Nc1cc2ncnc(NCc3ccccc3N)c2cn1` [Example 42, 7-Amino-4-(2-aminobenzylamino)pyrido[4,3-d]pyrimidine], under setting [2], the IC50 came out at 226 nM. For `CN(C)c1cccc(CNc2ncnc3cc(N)ncc23)c1` [Example 43, 7-Amino-4-(3-dimethylaminobenzylamino)pyrido[4,3-d]-pyrimidine], under setting [1], the IC50 came out at 10000 nM. Still for that read-out and setting: in the case of `Nc1cc2ncnc(NCc3cccc([N+](=O)[O-])c3)c2cn1` [Example 44, 7-Amino-4-(3-nitrobenzylamino)pyrido[4,3-d]pyrimidine] it was 10000 nM; in that of `COc1cccc(CNc2ncnc3cc(N)ncc23)c1` [Example 45, 7-Amino-4-(3-methoxybenzylamino)pyrido[4,3-d]pyrimidine], 2870 nM.

Take `Nc1cc2ncnc(NCc3ccc(Cl)cc3)c2cn1` [Example 46, 7-Amino-4-(4-chlorobenzylamino)pyrido[4,3-d]pyrimidine Mesylate]: the concentration for half-maximal inhibition (IC50) under setting [1] amounted to 1420 nM.

For `Nc1cc2ncnc(NCc3ccccc3Br)c2cn1` [Example 47, 7-Amino-4-(2-bromobenzylamino)pyrido[4,3-d]pyrimidine], under setting [1], the IC50 worked out at 1670 nM. On the same count and under the same terms, as for `Nc1cc2ncnc(NCc3cccc(Br)c3)c2cn1` [Example 48, 7-Amino-4-(3-bromobenzylamino)pyrido[4,3-d]pyrimidine], the figure is 1000 nM; as for `Nc1cc2ncnc(NCc3ccc(Br)cc3)c2cn1` [Example 49, 7-Amino-4-(4-bromobenzylamino)pyrido[4,3-d]pyrimidine], 2500 nM.

As for `Nc1cc2ncnc(NCc3ccccc3C(F)(F)F)c2cn1` [Example 50, 7-Amino-4-(2-trifluoromethylbenzylamino)pyrido[4,3-d]pyrimidine], under setting [1], the IC50 stood at 10000 nM. In the case of `Nc1cc2ncnc(NCc3cccc(C(F)(F)F)c3)c2cn1` [Example 51, 7-Amino-4-(3-trifluoromethylbenzylamino)pyrido[4,3-d]pyrimidine], under setting [1], the IC50 was 1950 nM.

`Nc1cc2ncnc(NCc3ccc(C(F)(F)F)cc3)c2cn1` [Example 52, 7-Amino-4-(4-trifluoromethylbenzylamino)pyrido[4,3-d]pyrimidine]: the IC50 under setting [1] was 8000 nM.

In the case of `Nc1cc2ncnc(NCc3cccs3)c2cn1` [Example 53, 7-Amino-4-(thien-2-ylmethylamino)[4,3-d]pyrimidine Dimesylate], under setting [1], the IC50 was found to be 1800 nM. Turning to `CC(=O)Nc1cc2ncnc(NCc3ccccc3)c2cn1` [Example 54, 7-Acetylamino-4-benzylaminozpyrido[4,3-d]pyrimidine], under setting [2], the IC50 worked out at 100 nM.

Regarding `c1ccc(Nc2ncnc3cnccc23)cc1` [Example 55, 4-Anilinopyrido[3,4-d]pyrimidine], the IC50 under setting [2] amounted to 400 nM.

As to `Brc1cccc(Nc2ncnc3cnccc23)c1` [Example 56, 4-(3-Bromoanilino)pyrido[3,4-d]pyrimidine], the IC50 under setting [2] worked out at 110 nM. Still for that read-out and setting: in the case of `Fc1cc2c(Nc3cccc(Br)c3)ncnc2cn1` [Example 57, 4-(3-Bromoanilino)-6-fluoropyrido[3,4-d]pyrimidine] it was 124 nM; in that of `Clc1cc2c(Nc3cccc(Br)c3)ncnc2cn1` [Example 58, 4-(3-Bromoanilino)-6-chloropyrido[3,4-d]pyrimidine], 40 nM.
